# Like-named read-outs stand apart in the source and are kept apart here.
# Experiments:
# [1] = system: BaF3 (EGFR L858R/T790M/C797S); assay: Cell proliferation IC50 assay (Cell Titer GLO), BaF3 LTC cells; assay type: cell-based; conditions: Mus musculus, Ba/F3 EGFR, Table 6, 72 h
# Protocol: (§1) IC50 of compounds in the present invention was determined by Cell Titer GLO reagent from Promega. The procedures are as follows:
# (§2) Tumor cells were cultured in specified medium in an incubator at 37° C. and 5% CO2. The cells were passaged periodically. Cells at the logarithmic growth phase were collected for plating at a density of 2000-4000 cells/well. The next day, the compounds of the present invention were serially diluted and added to the cells, with DMSO being the negative control and the culture media without cells being the blank control. The plate was incubated in the incubator for 72 h. The cell viability assay was performed by adding the detection reagents to the cell culture media according to Cell Titer GLO reagent instructions and detecting luminescent signals on an EnVision microplate reader (PerkinElmer).
# (§3) Inhibition of cell growth by the compounds of the present invention was plotted by Prism Graphpad software for statistically calculating the IC50 of the compound of the present invention.
# [2] = system: BaF3 (EGFR Del19/T790M/C797S); assay: Cell proliferation IC50 assay (Cell Titer GLO), BaF3 DTC cells; assay type: cell-based; conditions: Mus musculus, Ba/F3 EGFR-Del19/T790M/C797S, Table 6, 72 h
# Protocol: as §1, §2, §3
# [3] = system: BaF3 (EGFR WT); assay: Cell proliferation IC50 assay (Cell Titer GLO), BaF3 WT cells; assay type: cell-based; conditions: Mus musculus, Ba/F3 EGFR, Table 6, 10 ng/ml EGF, 72 h
# Protocol: as §1, §2, §3
# [4] = system: A431; assay: Cell proliferation IC50 assay (Cell Titer GLO), A431 cells; assay type: cell-based; conditions: Homo sapiens
# Protocol: as §1, §2, §3
# [5] = biological target: T1, BaF3 (EGFR Del19/C797S) (Homo sapiens, UniProt P00533, C797S, cells depend on it, form not given); assay: Cell proliferation IC50 assay (Cell Titer GLO), BaF3 DC cells; assay type: cell-based, mouse; conditions: Table 6, 72 h
# T1 construct: BaF3 (EGFR Del19/C797S)|DC|RPMI1640 + 10% FBS
# T1 sequence (P00533 with tags, fused parts or gaps DEL746-750/C797S, form open): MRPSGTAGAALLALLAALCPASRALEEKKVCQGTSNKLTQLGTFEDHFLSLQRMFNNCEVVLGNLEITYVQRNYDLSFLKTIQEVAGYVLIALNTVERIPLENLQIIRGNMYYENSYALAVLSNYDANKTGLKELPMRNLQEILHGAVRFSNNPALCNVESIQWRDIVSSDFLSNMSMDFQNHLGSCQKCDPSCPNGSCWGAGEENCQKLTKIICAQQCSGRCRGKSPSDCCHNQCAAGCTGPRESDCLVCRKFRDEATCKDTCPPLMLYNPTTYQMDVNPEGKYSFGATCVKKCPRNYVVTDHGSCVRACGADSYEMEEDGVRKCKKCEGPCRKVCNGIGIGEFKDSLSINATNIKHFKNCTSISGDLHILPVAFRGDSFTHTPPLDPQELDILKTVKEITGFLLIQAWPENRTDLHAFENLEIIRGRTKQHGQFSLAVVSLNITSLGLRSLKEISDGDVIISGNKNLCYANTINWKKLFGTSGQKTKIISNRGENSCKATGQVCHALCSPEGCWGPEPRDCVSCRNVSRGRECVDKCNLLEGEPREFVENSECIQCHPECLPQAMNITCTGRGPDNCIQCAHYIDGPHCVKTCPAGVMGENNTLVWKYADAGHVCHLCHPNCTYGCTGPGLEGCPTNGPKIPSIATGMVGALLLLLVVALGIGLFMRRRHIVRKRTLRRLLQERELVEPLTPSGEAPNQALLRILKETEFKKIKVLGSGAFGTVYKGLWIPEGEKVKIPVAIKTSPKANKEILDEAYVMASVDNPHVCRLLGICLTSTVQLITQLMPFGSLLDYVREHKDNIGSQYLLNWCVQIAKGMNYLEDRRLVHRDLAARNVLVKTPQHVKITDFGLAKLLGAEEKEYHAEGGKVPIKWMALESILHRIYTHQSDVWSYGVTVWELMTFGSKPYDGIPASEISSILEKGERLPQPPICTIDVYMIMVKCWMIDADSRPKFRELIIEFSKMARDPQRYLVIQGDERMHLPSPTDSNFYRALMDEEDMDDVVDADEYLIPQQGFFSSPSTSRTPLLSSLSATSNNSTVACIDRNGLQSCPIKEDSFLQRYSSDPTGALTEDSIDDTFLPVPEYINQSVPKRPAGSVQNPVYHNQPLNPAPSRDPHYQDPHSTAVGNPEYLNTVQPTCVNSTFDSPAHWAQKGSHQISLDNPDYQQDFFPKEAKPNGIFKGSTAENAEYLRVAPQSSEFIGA
# Protocol: as §1, §2, §3
# [6] = A-431, Table 6, A431, 72 h, read-out: A431 IC50
# [7] = A-431, 72 h, read-out: A431 IC50 (nM)
IC50 [1] [nM],IC50 [2] [nM],IC50 [3] [nM],"IC50 [4, 6] [nM]",IC50 [5] [nM],Structure (SMILES),"IC50 [4, 7] [nM]"
25.7,5.59,2500,1640,8.9,COc1cc(N2CCC(N3CCN(CCCCOc4cccc5c4CN(C4CCC(=O)NC4=O)C5=O)CC3)CC2)c(C2CC2)cc1Nc1ncc(Cl)c(Nc2ccccc2P(C)(C)=O)n1 (stereo not drawn) [Example E35],
24.7,9.49,541,1130,3.1,COc1cc(N2CCC(N3CCC4(CCC(=Cc5cccc6c5CN(C5CCC(=O)NC5=O)C6=O)CC4)C3)CC2)c(C2CC2)cc1Nc1ncc(Cl)c(Nc2ccccc2P(C)(C)=O)n1 (stereo not drawn) [Example E36],
15.3,4.84,1070,1210,3.1,CCc1cc(Nc2ncc(Cl)c(Nc3ccccc3P(C)(C)=O)n2)c(OC)cc1N1CCC(N2CCN(CC/C=C\c3cccc4c3CN(C3CCC(=O)NC3=O)C4=O)CC2)CC1 (stereo not drawn) [Example E37],
16.5,6.23,461,1020,3.4,CCc1cc(Nc2ncc(Cl)c(Nc3ccccc3P(C)(C)=O)n2)c(OC)cc1N1CCC(N2CCN(CCCCCc3ccc4c(c3)CN(C3CCC(=O)NC3=O)C4=O)CC2)CC1 (stereo not drawn) [Example E38],
17.7,10.1,1200,1610,9.2,CCc1cc(Nc2ncc(Cl)c(Nc3ccccc3P(C)(C)=O)n2)c(Cl)cc1N1CCC(N2CCN(CCC#Cc3cccc4c3CN(C3CCC(=O)NC3=O)C4=O)CC2)CC1 (stereo not drawn) [Example E46],
58.1,21.9,1260,1350,12.6,CCc1cc(Nc2ncc(Cl)c(Nc3ccccc3P(C)(C)=O)n2)c(OC)cc1N1CCC(N2CCN(C(=O)CCC#Cc3cccc4c3CN(C3CCC(=O)NC3=O)C4=O)CC2)CC1 (stereo not drawn) [Example E50],
162,17,781,1780,,CCc1cc(Nc2ncc(Cl)c(Nc3ccccc3P(C)(C)=O)n2)c(OC)cc1N1CCC(N2CCN(C(=O)COc3cccc4c3CN(C3CCC(=O)NC3=O)C4=O)CC2)CC1 (stereo not drawn) [Example E82],
135,,1190,1290,2,CCc1cc(Nc2nc(Nc3ccccc3P(C)(C)=O)c3cn[nH]c3n2)c(OC)cc1N1CCC(N2CCN(CCCCOc3cccc4c3CN(C3CCC(=O)NC3=O)C4=O)CC2)CC1 (stereo not drawn) [Example E161],
> 4000,,> 4000,> 4000,7.7,CCc1cc(Nc2ncc(-c3cc[nH]n3)c(Nc3ccccc3P(C)(C)=O)n2)c(OC)cc1N1CCC(N2CCN(CCOc3cccc4c3CN(C3CCC(=O)NC3=O)C4=O)CC2)CC1 (stereo not drawn) [Example E164],
> 4000,,> 4000,> 4000,3.5,CCc1cc(Nc2ncc(-n3ccnc3)c(Nc3ccccc3P(C)(C)=O)n2)c(OC)cc1N1CCC(N2CCN(CCOc3cccc4c3CN(C3CCC(=O)NC3=O)C4=O)CC2)CC1 (stereo not drawn) [Example E170],
> 4000,,> 4000,> 4000,6.3,CCc1cc(Nc2ncc(-n3cncn3)c(Nc3ccccc3P(C)(C)=O)n2)c(OC)cc1N1CCC(N2CCN(CCOc3cccc4c3CN(C3CCC(=O)NC3=O)C4=O)CC2)CC1 (stereo not drawn) [Example E171],
> 4000,,1070,> 4000,2.4,CCc1cc(Nc2ncc(-c3cnn(C)c3)c(Nc3ccccc3P(C)(C)=O)n2)c(OC)cc1N1CCC(N2Cc3ccc(Oc4cccc5c4CN(C4CCC(=O)NC4=O)C5=O)cc3C2)CC1 (stereo not drawn) [Example E172],
181,,1530,> 4000,21.7,CCc1cc(Nc2ncc(Cl)c(Nc3ccccc3P(C)(C)=O)n2)c(OC)cc1N1CCC(N2Cc3ccc(Sc4cccc5c4CN(C4CCC(=O)NC4=O)C5=O)cc3C2)CC1 (stereo not drawn) [Example E173],
> 4000,,> 4000,> 4000,2.4,CCc1cc(Nc2ncc(-c3ccnn3C)c(Nc3ccccc3P(C)(C)=O)n2)c(OC)cc1N1CCC(N2CCN(CCOc3cccc4c3CN(C3CCC(=O)NC3=O)C4=O)CC2)CC1 (stereo not drawn) [Example E176],
> 4000,,> 4000,> 4000,15.7,CCc1cc(Nc2ncc(-c3nnc(C)o3)c(Nc3ccccc3P(C)(C)=O)n2)c(OC)cc1N1CCC(N2CCN(CCOc3cccc4c3CN(C3CCC(=O)NC3=O)C4=O)CC2)CC1 (stereo not drawn) [Example E177],
50.3,,815,1460,19.5,CCc1cc(Nc2ncc(Cl)c(Nc3ccccc3P(C)(C)=O)n2)c(OC)cc1N1CCC(N2CCC3(CC(Oc4ccc5c(c4)CN(C4CCC(=O)NC4=O)C5=O)C3)C2)CC1 (stereo not drawn) [Example E187],
> 4000,,496,1010,0.8,CCc1cc(Nc2ncc(-c3cnn(C)c3)c(Nc3ccccc3P(C)(C)=O)n2)c(OC)cc1N1CCC(N2CCN(CCOc3cc4c(cc3F)C(=O)N(C3CCC(=O)NC3=O)C4)CC2)CC1 (stereo not drawn) [Example E189],
69.2,,947,1150,3.1,CCc1cc(Nc2ncc(Cl)c(Nc3ccccc3P(C)(C)=O)n2)c(OC)cc1N1CCC(N2CCN([C@H]3C[C@H](Oc4ccc5c(c4)CN(C4CCC(=O)NC4=O)C5=O)C3)CC2)CC1 (stereo partly drawn) [Example E191],
> 4000,,> 4000,> 4000,43.8,CCc1cc(Nc2ncc(-c3cc(C)n[nH]3)c(Nc3ccccc3P(C)(C)=O)n2)c(OC)cc1N1CCC(N2CCN(CCOc3ccc4c(c3)CN(C3CCC(=O)NC3=O)C4=O)CC2)CC1 (stereo not drawn) [Example E192],
> 4000,,1320,> 4000,14.9,CCc1cc(Nc2ncc(-c3cn(C)nn3)c(Nc3ccccc3P(C)(C)=O)n2)c(OC)cc1N1CCC(N2CCN(CCOc3ccc4c(c3)CN(C3CCC(=O)NC3=O)C4=O)CC2)CC1 (stereo not drawn) [Example E193],
> 4000,,535,1360,0.5,CCc1cc(Nc2ncc(-c3cnn(C)c3)c(Nc3ccccc3P(C)(C)=O)n2)c(OC)cc1N1CCC(N2CCN(CCOc3cc(F)cc4c3CN(C3CCC(=O)NC3=O)C4=O)CC2)CC1 (stereo not drawn) [Example E194],
532,,1010,1350,16.1,CCc1cc(Nc2nc(Nc3ccccc3P(C)(C)=O)c3cn[nH]c3n2)c(OC)cc1N1CCC(N2CCN(CCOc3cc4c(cc3F)C(=O)N(C3CCC(=O)NC3=O)C4)CC2)CC1 (stereo not drawn) [Example E208],
> 4000,,616,1460,3.4,CCc1cc(Nc2ncc(-n3cnc(C)c3)c(Nc3ccccc3P(C)(C)=O)n2)c(OC)cc1N1CCC(N2CCN(CCOc3ccc4c(c3)CN(C3CCC(=O)NC3=O)C4=O)CC2)CC1 (stereo not drawn) [Example E214],
> 4000,,926,> 4000,1,CCc1cc(Nc2ncc(-c3cnn(C)c3)c(Nc3ccc(C)cc3P(C)(C)=O)n2)c(OC)cc1N1CCC(N2CCN(Cc3ccc4c(c3)CN(C3CCC(=O)NC3=O)C4=O)CC2)CC1 (stereo not drawn) [Example E216],
> 4000,,623,> 4000,0.9,CCc1cc(Nc2ncc(-c3cnn(C)c3)c(Nc3ccccc3P(C)(C)=O)n2)c(OC)cc1N1CCC(N2CCN(Cc3ccc4c(c3)CN(C3CCC(=O)NC3=O)C4=O)CC2)CC1 (stereo not drawn) [Example E217],
> 4000,,2090,> 4000,1,CCc1cc(Nc2ncc(-n3cnc(C)n3)c(Nc3ccccc3P(C)(C)=O)n2)c(OC)cc1N1CCC(N2CCN(CCOc3ccc4c(c3)CN(C3CCC(=O)NC3=O)C4=O)CC2)CC1 (stereo not drawn) [Example E218],
> 4000,,> 4000,> 4000,4,CCc1cc(Nc2ncc(-n3ccnn3)c(Nc3ccccc3P(C)(C)=O)n2)c(OC)cc1N1CCC(N2CCN(CCOc3ccc4c(c3)CN(C3CCC(=O)NC3=O)C4=O)CC2)CC1 (stereo not drawn) [Example E220],
89.7,,133,> 4000,< 0.24,CCc1cc(Nc2ncc(-c3cnn(C)c3)c(Nc3ccccc3P(C)(C)=O)n2)c(OC)cc1N1CCC(N2CCN([C@H]3C[C@H](Oc4cc(F)cc5c4CN(C4CCC(=O)NC4=O)C5=O)C3)CC2)CC1 (stereo partly drawn) [Example E222],

Structure (SMILES),IC50 [1] [nM],IC50 [2] [nM],IC50 [3] [nM],"IC50 [4, 6] [nM]",IC50 [5] [nM],"IC50 [4, 7] [nM]"
CCc1cc(Nc2ncc(Cl)c(Nc3ccccc3P(C)(C)=O)n2)c(OC)cc1N1CCC(N2CCN(CCN(C)c3ccc4c(c3)CN(C3CCC(=O)NC3=O)C4=O)CC2)CC1 (stereo not drawn) [Example E223],69.4,,> 4000,,11.5,> 4000
CCc1cc(Nc2ncc(-c3cnn(C)c3)c(Nc3ccccc3P(C)(C)=O)n2)c(OC)cc1N1CCC(N2CCN(CCN(C)c3ccc4c(c3)CN(C3CCC(=O)NC3=O)C4=O)CC2)CC1 (stereo not drawn) [Example E224],> 4000,,654,,0.9,> 4000

# Reference: patent US20240408216A1, “PROTEIN INHIBITOR OR DEGRADING AGENT, PHARMACEUTICAL COMPOSITION CONTAINING SAME AND PHARMACEUTICAL USE” (JING MEDICINE TECHNOLOGY (SHANGHAI) LTD., priority 2021, published 2024)
